Laboratory results reported in US6743925B1, “Nitroimidazole derivative and diagnostic imaging agent containing the same” (Pola Chemical Industries, Inc., priority 1999, dated 2004).

System: cancer-bearing mice (WHT/Ht albino mice), squamous-cell carcinoma and fibrosarcoma
Experiment: Radiation intensity of each organ after intravenous injection to cancer-bearing mice
Format: in vivo
Experimental: Compound 4 of Example 4 was intravenously injected to cancer-bearing mice (WHT/Ht albino mice) (3 mice per group). Systemic frozen sections of each mouse were prepared 10, 30, 60, 120, and 150 minutes after intravenous injection, and the radiation intensity of each organ was measured. Squamous-cell carcinoma and fibrosarcoma were employed as cancer sources. When the sections was prepared, blood was collected separately, and the ratio of radiation intensity in each organ to that in blood was obtained.

[1] = 10 min. after intravenous injection
[2] = 30 min. after intravenous injection
[3] = 60 min. after intravenous injection
[4] = 120 min. after intravenous injection
[5] = 150 min. after intravenous injection

## O=[N+]([O-])c1nccn1COC(CO)C[18F] (stereo not shown) [Compound 4, 1-[2-fluoro(^18F)-1-(hydroxymethyl)ethoxy]methyl-2-nitroimidazole]
[1]
  radiation intensity, Blood: 2.222
  radiation intensity, Bone: 1.157
  radiation intensity, Brain: 1.168
  radiation intensity, Fibrosarcoma: 1.584
  radiation intensity, Heart: 1.721
  radiation intensity, Intestine: 1.697
  radiation intensity, Kidney: 7.935
  radiation intensity, Liver: 10.300
  radiation intensity, Lung: 2.151
  radiation intensity, Muscle: 1.576
  radiation intensity, Squamous carcinoma: 2.192
  radiation intensity, Testis: 0.861
  ratio of radiation intensity, Fibrosarcoma/blood: 0.697
  ratio of radiation intensity, Squamous carcinoma/blood: 0.893
[2]
  radiation intensity, Blood: 1.068
  radiation intensity, Bone: 0.617
  radiation intensity, Brain: 0.815
  radiation intensity, Fibrosarcoma: 1.319
  radiation intensity, Heart: 0.929
  radiation intensity, Intestine: 0.767
  radiation intensity, Kidney: 5.667
  radiation intensity, Liver: 5.018
  radiation intensity, Lung: 1.347
  radiation intensity, Muscle: 0.742
  radiation intensity, Squamous carcinoma: 1.237
  radiation intensity, Testis: 0.852
  ratio of radiation intensity, Fibrosarcoma/blood: 1.234
  ratio of radiation intensity, Squamous carcinoma/blood: 1.012
[3]
  radiation intensity, Blood: 0.379
  radiation intensity, Bone: 0.244
  radiation intensity, Brain: 0.308
  radiation intensity, Fibrosarcoma: 0.619
  radiation intensity, Heart: 0.378
  radiation intensity, Intestine: 0.533
  radiation intensity, Kidney: 1.856
  radiation intensity, Liver: 1.692
  radiation intensity, Lung: 0.596
  radiation intensity, Muscle: 0.314
  radiation intensity, Squamous carcinoma: 0.466
  radiation intensity, Testis: 0.466
  ratio of radiation intensity, Fibrosarcoma/blood: 1.634
  ratio of radiation intensity, Squamous carcinoma/blood: 1.384
[4]
  radiation intensity, Blood: 0.117
  radiation intensity, Bone: 0.253
  radiation intensity, Brain: 0.116
  radiation intensity, Fibrosarcoma: 0.421
  radiation intensity, Heart: 0.216
  radiation intensity, Intestine: 0.56
  radiation intensity, Kidney: 0.699
  radiation intensity, Liver: 0.730
  radiation intensity, Lung: 0.353
  radiation intensity, Muscle: 0.139
  radiation intensity, Squamous carcinoma: 0.133
  radiation intensity, Testis: 0.412
  ratio of radiation intensity, Fibrosarcoma/blood: 3.601
  ratio of radiation intensity, Squamous carcinoma/blood: 2.904
[5]
  radiation intensity, Blood: 0.096
  radiation intensity, Bone: 0.218
  radiation intensity, Brain: 0.126
  radiation intensity, Fibrosarcoma: 0.351
  radiation intensity, Heart: 0.186
  radiation intensity, Intestine: 0.488
  radiation intensity, Kidney: 0.511
  radiation intensity, Liver: 0.800
  radiation intensity, Lung: 0.331
  radiation intensity, Muscle: 0.159
  radiation intensity, Squamous carcinoma: 0.101
  radiation intensity, Testis: 0.139
  ratio of radiation intensity, Fibrosarcoma/blood: 3.675
  ratio of radiation intensity, Squamous carcinoma/blood: 2.357
